Test results reported in article PMC11946789, “Two Amino Acid Substitutions Improve the Pharmacological Profile of the Snake Venom Peptide Mambalgin” (Toxins, 2025).
Like-named read-outs stand apart in the source and are kept apart here. Bridges are numbered along the chain shown (N, C = ends). Where no end group is shown, it is not given here.

How the values were obtained:
[1] = molecular target: T1, homomeric rASIC1a (rat ASIC1a) (Rattus norvegicus, UniProt P55926); assay: TEVC recordings, homomeric rASIC1a; format: cell-based; conditions: for increase in desensitization rate of rASIC1a: pH 5.5-induced currents, 1 µM peptide, decay constant τdes, single exponential fit, 8 to 17 cells; for Emax: pH stimulus 5.5, inhibition not complete, read-out: maximum effect (inhibition); for IC50: peptide applied 30 s before activation, Xenopus laevis oocytes, mean ± S.E.M., n = 6, read-out: half-maximal inhibitory concentration (IC50)
T1 construct: expressed in transfected cells; host or cells: Xenopus laevis oocytes, mRNA microinjected
T1 sequence (P55926 1-526): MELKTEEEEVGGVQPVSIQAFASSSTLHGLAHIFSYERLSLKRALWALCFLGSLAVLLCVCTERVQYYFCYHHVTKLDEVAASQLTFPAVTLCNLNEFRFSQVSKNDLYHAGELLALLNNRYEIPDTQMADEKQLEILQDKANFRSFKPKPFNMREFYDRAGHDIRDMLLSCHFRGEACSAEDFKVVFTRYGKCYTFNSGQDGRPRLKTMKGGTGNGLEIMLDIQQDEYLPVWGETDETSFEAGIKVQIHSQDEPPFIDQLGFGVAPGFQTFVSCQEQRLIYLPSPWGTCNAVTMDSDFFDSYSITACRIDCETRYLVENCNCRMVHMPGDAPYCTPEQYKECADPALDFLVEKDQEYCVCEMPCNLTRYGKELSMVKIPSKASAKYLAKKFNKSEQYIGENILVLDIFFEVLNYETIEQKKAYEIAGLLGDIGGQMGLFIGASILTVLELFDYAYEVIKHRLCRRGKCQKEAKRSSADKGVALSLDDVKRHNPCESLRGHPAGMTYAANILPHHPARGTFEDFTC
Procedure: The functional activity of Mamb-AL and its comparison with wild-type Mamb were assessed using two-electrode voltage clamp (TEVC) recordings in Xenopus laevis oocytes heterologously expressing rASIC1a.
Figure 3 The inhibitory effect of Mamb-AL on rASIC1a exceeds that of Mamb. (A,C) Representative current traces showing the effects of various concentrations of Mamb (left panels) and Mamb-AL (right panels) on rASIC1a at pH stimuli of 5.5 (A) and 6.7 (C). Currents were induced by pH stimuli after a conditioning pH of 7.4, with peptides applied for 30 s prior to channel activation. The holding potential (Vh) was set to −50 mV, and the interval between applications varied from 1 to 2 min. (B,D) Dose–response curves for the inhibitory effects of Mamb and Mamb-AL on rASIC1a at pH stimuli of 5.5 (B) and 6.7 (D). Each data point represents measurements from six cells. (E) Bar plot showing statistical analysis of IC50 values calculated from the dose–response fits for the peptides’ inhibitory effects on individual cells (n = 6). **** p< 0.001; one-way ANOVA followed by Dunnett’s post hoc test. (F) Statistical analysis of the effects of 1 µM peptide concentration on the decay constant (τdes) at a pH stimulus of 5.5. Each data point represents data from 8 to 17 cells. * p< 0.05, **** p< 0.001 compared with control, paired t-test; & p< 0.05 comparing Mamb and Mamb-AL, unpaired t-test. Data are presented as mean ± S.E.M.
Female X.laevis frogs were anesthetized with 0.17% ethyl 3-amino-benzoate methane sulfonate (MS222). A small ovarian section was surgically removed via an abdominal incision and placed in ND96 medium (96 mM NaCl, 2 mM KCl, 1.8 mM CaCl2, 1 mM MgCl2, and 5 mM HEPES, pH 7.4, adjusted with NaOH). […] Each animal underwent surgeries at intervals of no less than three months. Connective tissue and follicular sheaths were removed by incubating ovarian tissue in calcium-free ND96 medium containing collagenase (1 mg/mL) for 2 h at 21 °C. Healthy, mature stage IV and V oocytes were selected and stored in ND96 medium. PCi plasmids encoding rat ASIC1a, ASIC1b, or ASIC3 served as templates for synthesizing the corresponding messenger RNAs (mRNAs), which were then microinjected into oocytes (0.2–10 ng per oocyte) using a Nanolitre 2000 microinjection system (World Precision Instruments, Sarasota, FL, USA) 16–18 h after oocyte isolation. Injected oocytes were incubated in ND96 medium supplemented with penicillin and gentamicin (50 µg/mL each) at 18 °C for 2–3 days, followed by storage at 14 °C for up to 7 days.
(§1) Whole-cell ASIC currents were measured using the two-electrode voltage clamp (TEVC) method with a GeneClamp 500 amplifier (Axon Instruments, Union City, NJ, USA). The holding potential maintained at –50 mV. Glass microelectrodes (0.5–2.5 MΩ) were filled with 3 M KCl solution, and ND96 (pH 7.4) was used as the external bath solution. ASIC currents were activated by rapidly switching the external solution from ND96 to either ND96 containing 10 mM MOPS (pH 6.7) or ND96 containing 10 mM MES (pH 5.5). Solution exchange was controlled using a custom-built computer-driven valve system. Data were filtered at 10 Hz and digitized at 100 Hz using an L780M ADC (LCard, Moscow, Russia). Peptides Mamb and Mamb-AL were applied for 30 s at pH 7.4 prior to acid stimulation of the channels.
(§2) Electrophysiological and behavioral data were analyzed using OriginPro 8.6.0 (OriginLab, Washington, DC, USA). […] The rate of current decay was fitted using a single exponential decay function: F(x) = A*eˆ(−x/τdes) + A0, where A0 is the minimal current response and τdes is the decay constant. Statistical significance between the Mamb and Mamb-AL groups was determined using an unpaired t-test. Data are presented as mean ± SEM.

[2] = system: heteromeric rat ASIC1a/3 channels (rASIC1a/3); assay: TEVC recordings, heteromeric rASIC1a/3; format: cell-based; conditions: for inhibition of rASIC1a/3: 100 nM, pH 5.5 stimulus, conditioning pH 7.4, % of control currents, n = 5, p < 0.05 Mamb-AL vs Mamb, unpaired t-test
Source text: Figure 4 The inhibitory effect of Mamb-AL on other ASIC1-containing channels exceeds that of Mamb. (A,C) Representative current traces showing the effects of various concentrations of Mamb (left panels) and Mamb-AL (right panels) on homomeric rat ASIC1b (rASIC1b) (A) and heteromeric rat ASIC1a/3 (rASIC1a/3) channels (C). Currents were evoked by a pH 5.5 stimulus following a conditioning pH of 7.4, with peptides applied for 30 s prior to the pH stimulus. (B) Dose–response curves for the inhibitory effects of Mamb and Mamb-AL on rASIC1b. Each data point represents measurements from 5 to 7 cells. (D) Bar graph quantifying the inhibitory effects of Mamb and Mamb-AL on rASIC1a/3, shown as a percentage of the corresponding control currents (n = 5). Data are presented as mean ± SEM; * p< 0.05, unpaired t-test. […] Data are shown as mean ± SEM; ns indicates no significant difference vs. control (dotted horizontal line), paired t-test.
Female X.laevis frogs were anesthetized with 0.17% ethyl 3-amino-benzoate methane sulfonate (MS222). A small ovarian section was surgically removed via an abdominal incision and placed in ND96 medium (96 mM NaCl, 2 mM KCl, 1.8 mM CaCl2, 1 mM MgCl2, and 5 mM HEPES, pH 7.4, adjusted with NaOH). […] Each animal underwent surgeries at intervals of no less than three months. Connective tissue and follicular sheaths were removed by incubating ovarian tissue in calcium-free ND96 medium containing collagenase (1 mg/mL) for 2 h at 21 °C. Healthy, mature stage IV and V oocytes were selected and stored in ND96 medium. […]
(§3) Whole-cell ASIC currents were measured using the two-electrode voltage clamp (TEVC) method with a GeneClamp 500 amplifier (Axon Instruments, Union City, NJ, USA). […]
(§4) Electrophysiological and behavioral data were analyzed using OriginPro 8.6.0 (OriginLab, Washington, DC, USA). […] Statistical significance between the Mamb and Mamb-AL groups was determined using an unpaired t-test. […]

[3] = system: homomeric rat ASIC3 channels; assay: TEVC recordings, homomeric ASIC3; format: cell-based; conditions: pH stimulus; n = 5; ns vs control, paired t-test
Source text: Figure 4 The inhibitory effect of Mamb-AL on other ASIC1-containing channels exceeds that of Mamb. (A,C) Representative current traces showing the effects of various concentrations of Mamb (left panels) and Mamb-AL (right panels) on homomeric rat ASIC1b (rASIC1b) (A) and heteromeric rat ASIC1a/3 (rASIC1a/3) channels (C). Currents were evoked by a pH 5.5 stimulus following a conditioning pH of 7.4, with peptides applied for 30 s prior to the pH stimulus. (B) Dose–response curves for the inhibitory effects of Mamb and Mamb-AL on rASIC1b. Each data point represents measurements from 5 to 7 cells. (D) Bar graph quantifying the inhibitory effects of Mamb and Mamb-AL on rASIC1a/3, shown as a percentage of the corresponding control currents (n = 5). Data are presented as mean ± SEM; * p< 0.05, unpaired t-test. […] Data are shown as mean ± SEM; ns indicates no significant difference vs. control (dotted horizontal line), paired t-test. […]
as §3, §4

[4] = system: ASIC; assay: TEVC recordings, ASIC1-containing channel not specified; format: cell-based, rat; conditions: channel and pH not given; for Hill coefficient: Hill equation fit
Procedure: as §1, §2

LKCFQHGKVVTCHRDMKFCYHNTGMPFRNLKLILQGCSSSCSETENNKCCSTDRCNK (disulfide 3-19, 12-37, 41-49, 50-55 (inferred)) [Mamb]
increase in desensitization rate of rASIC1a [1]: 24%
Emax [1]: ~90%
inhibition of rASIC1a/3 [2]: 13%
effect on rat ASIC3 channels [3]: neither wild-type Mamb nor Mamb-AL exhibited any detectable effects
Hill coefficient [4]: 1.54 ± 0.03

LKCYQHGKVVTCHRDAKFCYHNTGLPFRNLKLILQGCSSSCSETENNKCCSTDRCNK (disulfide 3-19, 12-37, 41-49, 50-55 (inferred)) [Mamb-AL]
greater inhibition of homomeric ASIC1a channels ([1]; compared with Mamb, pH not stated): three-fold
increase in desensitization rate of rASIC1a [1]: 45%
Mamb-AL outperformed Mamb (inhibition of rASIC1a) ([1]; pH 6.7, relative to Mamb): more than threefold
IC50 ([1]; pH stimulus 5.5, conditioning pH 7.4, Vh −50 mV): 62 ± 9 nM
Emax [1]: ~90%
complete inhibition ([1]; pH stimulus 6.7): 100%
IC50 ([1]; pH stimulus 6.7, conditioning pH 7.4, Vh −50 mV): 25 ± 3 nM
inhibition of rASIC1a/3 [2]: 32%
increase in inhibition of heteromeric ASIC1a/3 channels ([2]; compared with Mamb): two-fold increase
effect on rat ASIC3 channels [3]: neither wild-type Mamb nor Mamb-AL exhibited any detectable effects
Hill coefficient [4]: 1.4 ± 0.1
maximum inhibition (in words) ([4]; compared with wild-type peptide): unable to fully block channel activity, leading to a reduced maximum inhibition rate
